Molecular target: T1, USP5 (ubiquitin-specific protease 5) (Homo sapiens, UniProt P45974)
T1 sequence (P45974 2-858): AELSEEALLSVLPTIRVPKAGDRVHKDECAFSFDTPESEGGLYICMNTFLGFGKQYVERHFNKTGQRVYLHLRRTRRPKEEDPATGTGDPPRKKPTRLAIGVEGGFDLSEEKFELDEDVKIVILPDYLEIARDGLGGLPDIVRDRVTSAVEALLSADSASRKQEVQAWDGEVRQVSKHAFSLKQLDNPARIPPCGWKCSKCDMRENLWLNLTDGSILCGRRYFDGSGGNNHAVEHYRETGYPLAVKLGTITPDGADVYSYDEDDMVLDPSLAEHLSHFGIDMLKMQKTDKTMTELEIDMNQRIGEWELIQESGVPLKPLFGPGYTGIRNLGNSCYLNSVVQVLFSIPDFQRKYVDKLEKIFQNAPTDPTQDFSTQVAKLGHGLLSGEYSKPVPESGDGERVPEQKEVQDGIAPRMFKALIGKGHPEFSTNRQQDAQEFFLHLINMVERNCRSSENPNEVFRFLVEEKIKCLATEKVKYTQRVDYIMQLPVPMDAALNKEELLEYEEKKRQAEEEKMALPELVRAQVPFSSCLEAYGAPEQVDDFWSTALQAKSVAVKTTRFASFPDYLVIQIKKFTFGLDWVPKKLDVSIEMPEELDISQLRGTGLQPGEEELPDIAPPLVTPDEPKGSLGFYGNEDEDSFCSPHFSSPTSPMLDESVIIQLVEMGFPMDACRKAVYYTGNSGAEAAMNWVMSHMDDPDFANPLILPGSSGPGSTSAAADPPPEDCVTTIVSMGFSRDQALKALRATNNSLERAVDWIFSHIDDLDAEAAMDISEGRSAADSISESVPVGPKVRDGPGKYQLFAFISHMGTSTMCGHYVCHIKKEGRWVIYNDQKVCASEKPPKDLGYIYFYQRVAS
Assay: SPR
Assay type: binding

- Kd: 25.1 µM
Structure (SMILES): COc1ccc(-c2coc3cc(O)ccc3c2=O)cc1 [Formononetin]

Source: PMC6376178 (Theranostics, 2019)
